Here are results for one compound from EP2310009B1, “PARENTERAL AND ORAL FORMULATIONS OF BENZIMIDAZOLES” (UNIVERSITY OF HOUSTON, priority 2008, dated 2010).

Data set [1] in a line: Mebendazole release from SNEDDS, SEDDS, cosolvent and unformulated suspension. The class given is physicochemical. The settings on record: 60 minutes; unformulated drug in release media with placebo SNEDDS.
Text: Each point represents the mean ± SD of three independent determinations.
The asterisk* depicts significance between groups compared after analysis by ANOVA using Tukey's post-hoc test, at a threshold of significance at p<0.05.
A further data set has as its system human plasma protein. To be noted: cited from earlier work.

Regarding `COC(=O)Nc1nc2ccc(C(=O)c3ccccc3)cc2[nH]1` [MZ, methyl 5-benzoylbenzimidazole-2-carbamate], the “extent of drug release” value in data set [1] was found to be 1.10%. Also, the “drug bound to human plasma protein” value in the data set on human plasma protein was “about 90%”.
